From paper PMC12796071, “Evaluation of [^18F]MNI-1054, a novel PET ligand for lysine-specific histone demethylase 1A (LSD1), in non-human primates” (EJNMMI Research, 2025)
“And” between values parts separate entries of the source, which are not always exact repeats. Equal entries are not always repeated. “Also recorded” adds a separate entry of the source.

Assay: Whole-body PET biodistribution and radiation dosimetry (OLINDA 2.0)
Assay type: in vivo
Details: for Dose, Urinary bladder wall: no-bladder-void model; for whole-body effective dose, ED (ICRP-103): scaled from NHP to human
Protocol: Dynamic whole-body PET was conducted in one male (M3, 15.4 kg) and one female (M4, 6.8 kg) rhesus to study the biodistribution and radiation dosimetry of [^18F]MNI-1054. Whole-body images were acquired over ~4 h (17–19 passes, 4 bed positions) using a Biograph mCT PET/CT scanner (Siemens). The images in the series were subsequently reconstructed in 400 × 400 × 300 pixel arrays with pixel size: 2 × 2 × 2 mm^3 using the iterative True-X algorithm (4 iterations, 21 subsets) provided by the camera manufacturer, incorporating point spread function modeling and corrections for random, scatter, normalization, dead-time and attenuation. Prior to PET, each animal received a whole-body CT for correcting attenuation and scatter as well as to assist in anatomical localization of organs of interest.
Reconstructed whole-body PET volumes were transferred to PMOD software (PMOD Technologies, Zurich, Switzerland) for analysis. Decay correction was first removed to facilitate the calculation of radioactive disintegrations from dynamic data. Images were reviewed for assessment of body organ radioactivity distribution. VOIs were manually drawn to capture the following organs: brain, heart wall, lungs, gallbladder, liver, kidneys, spleen, testes (male), urinary bladder, back vertebrae, and intestines, and defined dynamically to account for any animal movement or shift in organ position or shape between acquisitions. Total activity (kBq) within each VOI was determined and organ TACs were generated and expressed as percent of the injected activity.
The number of disintegrations per unit activity administered in each source organ (i.e., the “residence times” or “time-integrated activity coefficients”), τ, were computed from the areas under the non-decay corrected TACs via the trapezoidal method. The area under the curve from the end of imaging to infinity was calculated with the assumption of physical decay only following the last imaging time point. Residence times were converted to adult human values using conversion factors based on differences in organ and body weights between both species. The ICRP 100 HAT gastrointestinal (GI) tract model was applied to estimate residence times in the left, right, and sigmoid (i.e., rectum) colon and small intestine, with the assumption that activity entered the GI tract via the small intestine with no reabsorption. The intestinal decay-corrected time-activity curve was used for estimating the fraction of the radioactivity entering the intestine during imaging. Red marrow residence times were calculated based on assumption that vertebrae contain ~40% of total red marrow.
OLINDA 2.0 software (Hermes Medical Solutions) was used to estimate the organ and whole-body radiation absorbed doses. OLINDA 2.0 performs internal dose calculations based on MIRD and Radiation Dose Assessment Resource (RADAR) methodology. ICRP-89 adult male (73 kg) and female (60 kg) models were used to calculate the s-factors. All other MIRD assumptions about the homogeneity of source organ distribution were employed. The effective doses were computed with biological tissue weighting factors defined in the ICRP Publication 103 [26].

SMILES: Cc1cc([18F])ncc1C(=O)Nc1ccc([C@@H]2C[C@H]2NCC2CC2)cc1 [[^18F]MNI-1054]
- Dose, Adrenals (ICRP-89 adult female model): 2.24E-02 mSv/MBq
- Dose, Brain (ICRP-89 adult female model): 1.22E-02 mSv/MBq
- Dose, Breasts (ICRP-89 adult female model): 1.06E-02 mSv/MBq
- Dose, Esophagus (ICRP-89 adult female model): 1.75E-02 mSv/MBq
- Dose, Eyes (ICRP-89 adult female model): 9.29E-03 mSv/MBq
- Dose, Gallbladder wall (ICRP-89 adult female model): 2.88E-01 mSv/MBq
- Dose, Heart wall (ICRP-89 adult female model): 4.98E-02 mSv/MBq
- Dose, Kidneys (ICRP-89 adult female model): 5.28E-02 mSv/MBq
- Dose, Left colon (ICRP-89 adult female model): 3.02E-02 mSv/MBq
- Dose, Liver (ICRP-89 adult female model): 2.29E-02 mSv/MBq
- Dose, Lungs (ICRP-89 adult female model): 6.16E-02 mSv/MBq
- Dose, Osteogenic cells (ICRP-89 adult female model): 1.36E-02 mSv/MBq
- Dose, Ovaries (ICRP-89 adult female model): 1.66E-02 mSv/MBq
- Dose, Pancreas (ICRP-89 adult female model): 2.12E-02 mSv/MBq
- Dose, Rectum (ICRP-89 adult female model): 1.88E-02 mSv/MBq
- Dose, Red marrow (ICRP-89 adult female model): 2.01E-02 mSv/MBq
- Dose, Right colon (ICRP-89 adult female model): 6.29E-02 mSv/MBq
- Dose, Salivary glands (ICRP-89 adult female model): 1.01E-02 mSv/MBq
- Dose, Small intestine (ICRP-89 adult female model): 6.01E-02 mSv/MBq
- Dose, Spleen (ICRP-89 adult female model): 2.77E-02 mSv/MBq
- Dose, Stomach wall (ICRP-89 adult female model): 1.69E-02 mSv/MBq
- Dose, Thymus (ICRP-89 adult female model): 1.88E-02 mSv/MBq
- Dose, Thyroid (ICRP-89 adult female model): 1.32E-02 mSv/MBq
- Dose, Total body (ICRP-89 adult female model): 1.53E-02 mSv/MBq
- Dose, Uterus (ICRP-89 adult female model): 1.92E-02 mSv/MBq
- Dose, Urinary bladder wall (ICRP-89 adult female model): 5.92E-02 mSv/MBq
- whole-body effective dose, ED (ICRP-103) (ICRP-89 adult female model): 0.0272 mSv/MBq and 2.72E-02 mSv/MBq
- Dose, Adrenals (ICRP-89 adult male model): 1.87E-02 mSv/MBq
- Dose, Brain (ICRP-89 adult male model): 9.69E-03 mSv/MBq
- Dose, Esophagus (ICRP-89 adult male model): 1.49E-02 mSv/MBq
- Dose, Eyes (ICRP-89 adult male model): 7.78E-03 mSv/MBq
- Dose, Gallbladder wall (ICRP-89 adult male model): 6.57E-02 mSv/MBq
- Dose, Heart wall (ICRP-89 adult male model): 4.90E-02 mSv/MBq
- Dose, Kidneys (ICRP-89 adult male model): 4.63E-02 mSv/MBq
- Dose, Left colon (ICRP-89 adult male model): 1.62E-02 mSv/MBq
- Dose, Liver (ICRP-89 adult male model): 3.02E-02 mSv/MBq
- Dose, Lungs (ICRP-89 adult male model): 4.01E-02 mSv/MBq
- Dose, Osteogenic cells (ICRP-89 adult male model): 1.21E-02 mSv/MBq
- Dose, Pancreas (ICRP-89 adult male model): 1.48E-02 mSv/MBq
- Dose, Prostate (ICRP-89 adult male model): 1.78E-02 mSv/MBq
- Dose, Rectum (ICRP-89 adult male model): 1.60E-02 mSv/MBq
- Dose, Red marrow (ICRP-89 adult male model): 1.65E-02 mSv/MBq
- Dose, Right colon (ICRP-89 adult male model): 2.37E-02 mSv/MBq
- Dose, Salivary glands (ICRP-89 adult male model): 9.10E-03 mSv/MBq
- Dose, Small intestine (ICRP-89 adult male model): 2.08E-02 mSv/MBq
- Dose, Spleen (ICRP-89 adult male model): 1.84E-02 mSv/MBq
- Dose, Stomach wall (ICRP-89 adult male model): 1.42E-02 mSv/MBq
- Dose, Testes (ICRP-89 adult male model): 3.17E-02 mSv/MBq
- Dose, Thymus (ICRP-89 adult male model): 1.44E-02 mSv/MBq
- Dose, Thyroid (ICRP-89 adult male model): 1.14E-02 mSv/MBq
- Dose, Total body (ICRP-89 adult male model): 1.16E-02 mSv/MBq
- Dose, Urinary bladder wall (ICRP-89 adult male model): 1.24E-01 mSv/MBq
- whole-body effective dose, ED (ICRP-103) (ICRP-89 adult male model): 0.0267 mSv/MBq and 2.67E-02 mSv/MBq
- Dose, Adrenals (Mean): 2.06E-02 mSv/MBq
- Dose, Brain (Mean): 1.09E-02 mSv/MBq
- Dose, Breasts (Mean): 1.06E-02 mSv/MBq
- Dose, Esophagus (Mean): 1.62E-02 mSv/MBq
- Dose, Eyes (Mean): 8.54E-03 mSv/MBq
- Dose, Gallbladder wall (Mean): 0.18 mSv/MBq and 0.177 mSv/MBq and 1.77E-01 mSv/MBq
- Dose, Heart wall (Mean): 4.94E-02 mSv/MBq
- Dose, Kidneys (Mean): 4.96E-02 mSv/MBq
- Dose, Left colon (Mean): 2.32E-02 mSv/MBq
- Dose, Liver (Mean): 2.66E-02 mSv/MBq
- Dose, Lungs (Mean): 5.09E-02 mSv/MBq
- Dose, Osteogenic cells (Mean): 1.29E-02 mSv/MBq
- Dose, Ovaries (Mean): 1.66E-02 mSv/MBq
- Dose, Pancreas (Mean): 1.80E-02 mSv/MBq
- Dose, Prostate (Mean): 1.78E-02 mSv/MBq
- Dose, Rectum (Mean): 1.74E-02 mSv/MBq
- Dose, Red marrow (Mean): 1.83E-02 mSv/MBq
- Dose, Right colon (Mean): 4.33E-02 mSv/MBq
- Dose, Salivary glands (Mean): 9.60E-03 mSv/MBq
- Dose, Small intestine (Mean): 4.05E-02 mSv/MBq
- Dose, Spleen (Mean): 2.31E-02 mSv/MBq
- Dose, Stomach wall (Mean): 1.56E-02 mSv/MBq
- Dose, Testes (Mean): 3.17E-02 mSv/MBq
- Dose, Thymus (Mean): 1.66E-02 mSv/MBq
- Dose, Thyroid (Mean): 1.23E-02 mSv/MBq
- Dose, Total body (Mean): 1.35E-02 mSv/MBq
- Dose, Uterus (Mean): 1.92E-02 mSv/MBq
- Dose, Urinary bladder wall (Mean): 0.0916 mSv/MBq and 9.16E-02 mSv/MBq
- whole-body effective dose, ED (ICRP-103) (Mean): 2.70E-02 mSv/MBq
- whole-body effective dose per 185 MBq injected (female value): 5.03 mSv
- maximal dose allowed for a single study per 21 CFR § 361.1 (gallbladder wall as the dose-limiting organ): 282.5 MBq
- elimination pathways (whole-body imaging): eliminated via both hepatobiliary and urinary pathways; also recorded: urinary (primary) and hepatobiliary pathways
